PubChem BioAssay AID1963969 (Molecular Pharmacology Branch, DTP, NCI, 2024)
pIC50: −log10 of the molar value. Where “and” joins values, the source holds several entries; their conditions need not be identical. Equal values may be shown once.

Test system: 817829-284-R-J1-PDC multi-cell spheroid viability
Assay: Anticancer human tumor 817829-284-R-J1-PDC patient-derived colon adenocarcinoma cell line growth inhibition [PI3K]
Details: for viability, T/C: stronger effect = lower value
Procedure, shortened: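 Stroma-containing spheroids: tumor line, pooled-donor HUVEC, hMSC. Treatments: targeted agents with PI3K inhibitors. Dosing: clinically relevant, half-log spacing, 10 microM ceiling without known Cmax. Read-out: cell viability.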

[1] = curve of first compound, second compound 0.00316 µM
[2] = curve of first compound, second compound 0.01 µM
[3] = curve of first compound, second compound 0.0316 µM
[4] = curve of first compound, second compound 0.1 µM
[5] = curve of first compound, second compound 0.316 µM
[6] = curve of first compound, second compound 1 µM
[7] = second compound 0.00316 µM, first compound 0.0316 µM
[8] = second compound 0.00316 µM, first compound 0.1 µM
[9] = second compound 0.00316 µM, first compound 0.316 µM
[10] = second compound 0.00316 µM, first compound 1 µM
[11] = second compound 0.00316 µM, first compound 3.16 µM
[12] = second compound 0.00316 µM, first compound 10 µM
[13] = second compound 0.01 µM, first compound 0.0316 µM
[14] = second compound 0.01 µM, first compound 0.1 µM
[15] = second compound 0.01 µM, first compound 0.316 µM
[16] = second compound 0.01 µM, first compound 1 µM
[17] = second compound 0.01 µM, first compound 3.16 µM
[18] = second compound 0.01 µM, first compound 10 µM
[19] = second compound 0.0316 µM, first compound 0.0316 µM
[20] = second compound 0.0316 µM, first compound 0.1 µM
[21] = second compound 0.0316 µM, first compound 0.316 µM
[22] = second compound 0.0316 µM, first compound 1 µM
[23] = second compound 0.0316 µM, first compound 3.16 µM
[24] = second compound 0.0316 µM, first compound 10 µM
[25] = second compound 0.1 µM, first compound 0.0316 µM
[26] = second compound 0.1 µM, first compound 0.1 µM
[27] = second compound 0.1 µM, first compound 0.316 µM
[28] = second compound 0.1 µM, first compound 1 µM
[29] = second compound 0.1 µM, first compound 3.16 µM
[30] = second compound 0.1 µM, first compound 10 µM
[31] = second compound 0.316 µM, first compound 0.0316 µM
[32] = second compound 0.316 µM, first compound 0.1 µM
[33] = second compound 0.316 µM, first compound 0.316 µM
[34] = second compound 0.316 µM, first compound 1 µM
[35] = second compound 0.316 µM, first compound 3.16 µM
[36] = second compound 0.316 µM, first compound 10 µM
[37] = second compound 1 µM, first compound 0.0316 µM
[38] = second compound 1 µM, first compound 0.1 µM
[39] = second compound 1 µM, first compound 0.316 µM
[40] = second compound 1 µM, first compound 1 µM
[41] = second compound 1 µM, first compound 3.16 µM
[42] = second compound 1 µM, first compound 10 µM
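Further: spheroids exposed to agents for seven days before readout.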
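Wherever viability, T/C is given: percent of vehicle DMSO control viability which is 100%.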

`C=CC(=O)N1CCN(c2nc(=O)n(-c3c(C)ccnc3C(C)C)c3nc(-c4c(O)cccc4F)c(F)cc23)C(C)C1` (configuration not stated) + CC(Nc1ccc2c(c1)OCCn1cc(N3C(=O)OCC3C(F)F)nc1-2)C(N)=O gave a pIC50 [1] of less than 5.00, a pIC50 [2] of less than 5.00 and a pIC50 [3] of less than 5.00. The pIC50 [4] was 5.18, the pIC50 [5] was less than 5.00 and the pIC50 [6] was less than 5.00. It also gave a viability, T/C [7] of 91.4%, a viability, T/C [8] of 93.3% and a viability, T/C [9] of 82.9%. It also gave a viability, T/C [10] of 71.9%, a viability, T/C [11] of 77.9% and a viability, T/C [12] of 55.4%. The viability, T/C [13] was 62.7%, the viability, T/C [14] was 57.7% and the viability, T/C [15] was 83.9%. The viability, T/C [16] was 78.6%, the viability, T/C [17] was 84.8% and the viability, T/C [18] was 38.9%. For the same molecule, the viability, T/C [19] was 53.8%, the viability, T/C [20] was 112% and the viability, T/C [21] was 108%. The viability, T/C [22] was 51.1%, the viability, T/C [23] was 64% and the viability, T/C [24] was 73.7%. For the same molecule, the viability, T/C [25] was 64.7%, the viability, T/C [26] was 92.2% and the viability, T/C [27] was 79.2%. It also gave a viability, T/C [28] of 84.2%, a viability, T/C [29] of 78.9% and a viability, T/C [30] of 34.1%. The viability, T/C [31] was 60.1%, the viability, T/C [32] was 75.9% and the viability, T/C [33] was 67.4%. The viability, T/C [34] was 52.6%, the viability, T/C [35] was 68% and the viability, T/C [36] was 44.6%. For the same molecule, the viability, T/C [37] was 61.6%, the viability, T/C [38] was 53.9% and the viability, T/C [39] was 79.3%. It also gave a viability, T/C [40] of 57.3%, a viability, T/C [41] of 62.7% and a viability, T/C [42] of 53.5%.

Molecule `Cn1nccc1Nc1nccc(-c2ccn(C(CO)c3ccc(Cl)c(F)c3)c(=O)c2)n1` (configuration not stated) + CC(Nc1ccc2c(c1)OCCn1cc(N3C(=O)OCC3C(F)F)nc1-2)C(N)=O has a pIC50 [1] of 5.22, a pIC50 [2] of 5.33 and a pIC50 [3] of 5.14. It also gave a pIC50 [4] of 5.16, a pIC50 [5] of 5.41 and a pIC50 [6] of less than 5.00. For the same molecule, the viability, T/C [7] was 87.6%, the viability, T/C [8] was 72.7% and the viability, T/C [9] was 88.3%. The viability, T/C [10] was 72.5%, the viability, T/C [11] was 83.5% and the viability, T/C [12] was 26.2%. For the same molecule, the viability, T/C [13] was 70%, the viability, T/C [14] was 79.8% and the viability, T/C [15] was 76.7%. For the same molecule, the viability, T/C [16] was 70.9%, the viability, T/C [17] was 64.1% and the viability, T/C [18] was 22.2%. It also gave a viability, T/C [19] of 90.6%, a viability, T/C [20] of 102% and a viability, T/C [21] of 90.2%. The viability, T/C [22] was 105%, the viability, T/C [23] was 98.5% and the viability, T/C [24] was 30.9%. For the same molecule, the viability, T/C [25] was 58.9%, the viability, T/C [26] was 84.9% and the viability, T/C [27] was 92.3%. It also gave a viability, T/C [28] of 115%, a viability, T/C [29] of 87% and a viability, T/C [30] of 33%. The viability, T/C [31] was 110%, the viability, T/C [32] was 67.6% and the viability, T/C [33] was 80.5%. For the same molecule, the viability, T/C [34] was 60.8%, the viability, T/C [35] was 65.7% and the viability, T/C [36] was 33.1%. The viability, T/C [37] was 55.9%, the viability, T/C [38] was 63.7% and the viability, T/C [39] was 72.4%. The viability, T/C [40] was 80.3%, the viability, T/C [41] was 75.9% and the viability, T/C [42] was 34.4%.

For `CC(C)NCC(C(=O)N1CCN(c2ncnc3c2C(C)CC3O)CC1)c1ccc(Cl)cc1` (configuration not stated), the viability, T/C (compound 0.0316 µM) was 74.6% and 90.4%, the viability, T/C (compound 0.1 µM) was 61.1% and 54.8% and the viability, T/C (compound 0.316 µM) was 38.5% and 41.4%. For the same molecule, the viability, T/C (compound 1 µM) was 28% and 27.8%, the viability, T/C (compound 3.16 µM) was 21% and 17.3% and the viability, T/C (compound 10 µM) was 10.7% and 10.9%. For the same molecule, the pIC50 (curve of compound) was 6.75 and 6.77.

In the case of `CC(Nc1ncnc2nc[nH]c12)c1cc2cccc(Cl)c2c(=O)n1-c1ccccc1` (configuration not stated), the viability, T/C (compound 0.0316 µM) was 98.7% and 80.4%, the viability, T/C (compound 0.1 µM) was 78.1% and 107% and the viability, T/C (compound 0.316 µM) was 98.9% and 104%. The viability, T/C (compound 1 µM) was 89% and 74.1%, the viability, T/C (compound 3.16 µM) was 82.9% and 94.8% and the viability, T/C (compound 10 µM) was 66% and 70.4%. It also gave a pIC50 (compound alone, run of 04/25/2023) of less than 5.00.

For `Cn1nccc1Nc1nccc(-c2ccn(C(CO)c3ccc(Cl)c(F)c3)c(=O)c2)n1` (configuration not stated), the viability, T/C (compound 0.0316 µM) was 100% and 96.5%, the viability, T/C (compound 0.1 µM) was 68.5% and 79.2% and the viability, T/C (compound 0.316 µM) was 84.3% and 83.6%. For the same molecule, the viability, T/C (compound 1 µM) was 110% and 86.8%, the viability, T/C (compound 3.16 µM) was 71.2% and 81.6% and the viability, T/C (compound 10 µM) was 26% and 39.2%. The pIC50 (curve of compound) was 5.27 and 5.13.

`CC(Cn1ccc(-c2ccc(C#N)c(Cl)c2)n1)NC(=O)c1cc(C(C)O)[nH]n1` (configuration not stated) + COc1c(OCCCN2CCOCC2)ccc2c3n(c(=NC(=O)c4cnc(N)nc4)nc12)CCN3 gave a pIC50 [1] of less than 5.00, a pIC50 [2] of 5.19 and a pIC50 [3] of 5.24. For the same molecule, the pIC50 [4] was greater than 7.50, the pIC50 [5] was greater than 7.50 and the pIC50 [6] was greater than 7.50. For the same molecule, the viability, T/C [7] was 70.6%, the viability, T/C [8] was 101% and the viability, T/C [9] was 101%. The viability, T/C [10] was 97.5%, the viability, T/C [11] was 64.5% and the viability, T/C [12] was 73.9%. For the same molecule, the viability, T/C [13] was 59.5%, the viability, T/C [14] was 87.1% and the viability, T/C [15] was 98.8%. The viability, T/C [16] was 57.1%, the viability, T/C [17] was 71.1% and the viability, T/C [18] was 39.4%. For the same molecule, the viability, T/C [19] was 50.8%, the viability, T/C [20] was 61.7% and the viability, T/C [21] was 61.4%. The viability, T/C [22] was 67.5%, the viability, T/C [23] was 54.6% and the viability, T/C [24] was 36.4%. For the same molecule, the viability, T/C [25] was 48.2%, the viability, T/C [26] was 30.8% and the viability, T/C [27] was 30.2%. The viability, T/C [28] was 38.1%, the viability, T/C [29] was 33.2% and the viability, T/C [30] was 26.8%. For the same molecule, the viability, T/C [31] was 20.2%, the viability, T/C [32] was 21.3% and the viability, T/C [33] was 23.6%. For the same molecule, the viability, T/C [34] was 20.5%, the viability, T/C [35] was 24.4% and the viability, T/C [36] was 20.8%. It also gave a viability, T/C [37] of 12.9%, a viability, T/C [38] of 7.86% and a viability, T/C [39] of 10.6%. For the same molecule, the viability, T/C [40] was 9.64%, the viability, T/C [41] was 9.96% and the viability, T/C [42] was 10.4%.
